Test results taken from ChEMBL document CHEMBL5346969 (J Med Chem, 2023).
In brackets after ≈: the same amount, converted by molar mass. Activity calls are given as the source filed them. No cut-off for these calls is given here.

Legend:
MDA-MB-231 [1] = assay: Induction of ferroptosis in human MDA-MB-231 cells assessed as cell viability incubated for 72 hrs in presence of apoptosis inhibitor, Z-VAD-FMK by MTT assay; assay type: functional, cell-based; settings: MDA-MB-231, 72 h
[2] = Solubility of compound at pH 7.4; assay type: physicochemical; settings: buffer
[3] = Toxicity in immunodeficient BALB/c mouse xenografted with human MDA-MB-231 cells assessed as morphological changes in spleen at 20 mg/kg, ip for 21 days by H and E staining based microscopy; assay type: organism-based; settings: in vivo, 504 h, time 21 day
[4] = target: T1, Phospholipid hydroperoxide glutathione peroxidase GPX4 (Homo sapiens) (UniProt P36969); assay: Inhibition of GPX4 (unknown origin) at 1 uM incubated for 1 hrs in presence of glutathione and glutathione reductase by microplate reader analysis
T1 sequence (whole entry): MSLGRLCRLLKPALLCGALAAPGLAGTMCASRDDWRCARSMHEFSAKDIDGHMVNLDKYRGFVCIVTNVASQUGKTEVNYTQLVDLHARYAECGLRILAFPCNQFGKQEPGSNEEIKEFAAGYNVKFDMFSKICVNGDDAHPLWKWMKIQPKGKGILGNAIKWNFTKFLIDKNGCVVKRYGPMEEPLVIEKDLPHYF

[5] = Toxicity in immunodeficient BALB/c mouse assessed as change in ALT level at 20 mg/kg, ip for 14 days by biochemical analysis; assay type: organism-based; settings: in vivo, 336 h, time 14 day
MDA-MB-231 [6] = assay: Induction of ferroptosis in human MDA-MB-231 cells assessed as increase in intracellular lipid peroxidase by measuring MDA content at 5 to 20 nM incubated for 8 hrs by C11-BODIPY-581/591 staining based flow cytometry analysis; assay type: functional, cell-based; settings: dose 5-20 nM
MDA-MB-231 [7] = assay: Antiproliferative activity against human MDA-MB-231 cells assessed as inhibition of cell viability incubated for 72 hrs by MTT assay; assay type: functional, cell-based; settings: MDA-MB-231, 72 h
[8] = target: T2, Phospholipid hydroperoxide glutathione peroxidase GPX4 (Homo sapiens, UniProt P36969); assay: Inhibition of GPX4 (unknown origin) incubated for 1 hrs in presence of glutathione and glutathione reductase by microplate reader analysis
T2 sequence (P36969 whole entry): T1 sequence (whole entry)

MDA-MB-231 [9] = assay: Induction of ferroptosis in human MDA-MB-231 cells assessed as cell viability at 1 uM incubated for 72 hrs in presence of autophagy inhibitor, 3-MA by MTT assay; assay type: functional, cell-based
MDA-MB-231 [10] = assay: Antitumor activity against human MDA-MB-231 cells xenografted in immunodeficient BALB/c mouse assessed as tumor growth inhibition at 5 mg/kg,ip for 21 days consecutively every day; assay type: functional; settings: MDA-MB-231, 504 h, time 21 day, read-out: TGI
MDA-MB-231 [11] = assay: Induction of ferroptosis in human MDA-MB-231 cells with assessed as decrease in GPX4 protein expression level at 5 to 20 nM incubated for 8 hrs by Western blot analysis; assay type: functional, cell-based; settings: dose 5-20 nM
MDA-MB-231 [12] = assay: Inhibition of colony formation in human MDA-MB-231 cells at 20 nM incubated for 14 days by crystal violet staining based assay; assay type: functional, cell-based; settings: time 14.0 day
MDA-MB-231 [13] = assay: Induction of ferroptosis in human MDA-MB-231 cells assessed as induction of lipid peroxidase accumulation at 5 to 20 nM incubated for 8 hrs by C11-BODIPY-581/591 staining based flow cytometry analysis; assay type: functional, cell-based; settings: dose 5-20 nM
A549 = assay: Antiproliferative activity against human A549 cells assessed as inhibition of cell viability at 1 uM incubated for 72 hrs by MTT assay; assay type: functional, cell-based
MDA-MB-231 [14] = assay: Induction of ferroptosis in human MDA-MB-231 cells assessed as increase in intracellular Fe2+ level at 5 to 20 nM incubated for 8 hrs by FerroOrange staining based confocal laser microscopy; assay type: functional, cell-based; settings: dose 5-20 nM
[15] = target: T2, Phospholipid hydroperoxide glutathione peroxidase GPX4; assay: Covalent inhibition of GPX4 (unknown origin) assessed as inhibition constant incubated for 30 to 90 mins in presence of glutathione, glutathione reductase and NADPH by microplate reader analysis
L02 = assay: Cytotoxicity against human L02 cells assessed as inhibition of cell viability at 1 uM incubated for 72 hrs by MTT assay; assay type: toxicity, cell-based; settings: l02, 72 h
[16] = Selectivity ratio, ratio of IC50 for Induction of ferroptosis in human MDA-MB-231 cells assessed as reduction in cell viability in presence of ferroptosis inhibitor, ferrostatin-1 to IC50 for antiproliferative activity against human MDA-MB-231 cells; assay type: functional
MDA-MB-231 [17] = assay: Inhibition of colony formation in human MDA-MB-231 cells at 5 to 20 nM incubated for 14 days by crystal violet staining based assay; assay type: functional, cell-based; settings: dose 5-20 nM, time 14.0 day
MDA-MB-231 [18] = assay: Induction of ferroptosis in human MDA-MB-231 cells with assessed as increase in ACSL4 protein expression level at 5 to 20 nM incubated for 8 hrs by Western blot analysis; assay type: functional, cell-based; settings: dose 5-20 nM
MDA-MB-231 [19] = assay: Induction of ferroptosis-mediated morphological changes in human MDA-MB-231 cells assessed as increased membrane density at 20 nM incubated for 6 hrs by TEM analysis; assay type: functional, cell-based
MDA-MB-231 [20] = assay: Induction of ferroptosis-mediated morphological changes in human MDA-MB-231 cells assessed as broken outer membrane at 20 nM incubated for 6 hrs by TEM analysis; assay type: functional, cell-based
MDA-MB-231 [21] = assay: Induction of ferroptosis in human MDA-MB-231 cells assessed as cell viability incubated for 72 hrs in presence of autophagy inhibitor, 3-MA by MTT assay; assay type: functional, cell-based; settings: MDA-MB-231, 72 h
MDA-MB-231 [22] = assay: Induction of ferroptosis in human MDA-MB-231 cells with assessed as decrease in xCT protein expression level at 5 to 20 nM incubated for 8 hrs by Western blot analysis; assay type: functional, cell-based; settings: dose 5-20 nM
MDA-MB-231 [23] = assay: Induction of ferroptosis in human MDA-MB-231 cells with assessed as decrease in intracellular GSH level at 20 nM incubated for 8 hrs by colorimetric assay; assay type: functional, cell-based
MDA-MB-231 [24] = assay: Induction of ferroptosis in human MDA-MB-231 cells assessed as increase in intracellular lipid peroxidase by measuring increase in green fluorescence intensity at 5 to 20 nM incubated for 8 hrs by C11-BODIPY-581/591 staining based confocal laser microscopy; assay type: functional, cell-based; settings: dose 5-20 nM
BT-549 = assay: Antiproliferative activity against human BT-549 cells assessed as inhibition of cell viability incubated for 72 hrs by MTT assay; assay type: functional, cell-based; settings: BT-549, 72 h
MDA-MB-231 [25] = assay: Antiproliferative activity against human MDA-MB-231 cells assessed as inhibition of cell viability at 1 uM incubated for 72 hrs by MTT assay; assay type: functional, cell-based
MDA-MB-468 = assay: Antiproliferative activity against human MDA-MB-468 cells assessed as inhibition of cell viability incubated for 72 hrs by CCK-8 assay; assay type: functional, cell-based; settings: MDA-MB-468, 72 h
U-87 MG = assay: Antiproliferative activity against human U87 cells assessed as inhibition of cell viability at 1 uM incubated for 72 hrs by MTT assay; assay type: functional, cell-based; settings: U-87MG ATCC
4T1 = assay: Antiproliferative activity against mouse 4T1 cells assessed as inhibition of cell viability at 1 uM incubated for 72 hrs by MTT assay; assay type: functional, cell-based
MCF-10A = assay: Cytotoxicity against human MCF-10A cells assessed as inhibition of cell viability at 1 uM incubated for 72 hrs by MTT assay; assay type: toxicity, cell-based
MDA-MB-231 [26] = assay: Induction of ferroptosis in human MDA-MB-231 cells assessed as cell viability incubated for 72 hrs in presence of ferroptosis inhibitor, ferrostatin-1 by MTT assay; assay type: functional, cell-based; settings: MDA-MB-231, 72 h

Compound	IC50 (MDA-MB-231 [1]) [nM]	solubility [2] [µg/mL]	Activity [3]	inhibition [4] [%]	Activity [5]	Activity (MDA-MB-231 [6])	IC50 (MDA-MB-231 [7]) [nM]	IC50 [8] [nM]	Activity (MDA-MB-231 [9])	inhibition in vivo at 5 mg/kg (MDA-MB-231 [10]) [%]	Activity (MDA-MB-231 [11])	inhibition (MDA-MB-231 [12])	Activity (MDA-MB-231 [13])	Activity (A549)	Activity (MDA-MB-231 [14])	Ki [15] [nM]	Activity (L02)	Ratio IC50 [16]	inhibition (MDA-MB-231 [17])	Activity (MDA-MB-231 [18])	other results
COc1cc(N(C(=O)CBr)c2ccc3c(c2)OCCO3)cc(OC)c1F	30	3.3 (≈ 7.74 µM)	Non-Toxic	97.4	Toxic	Dose-Dependent Effect	8	130	inactive	18.9	Active	Active	Dose-Dependent Effect	inactive	Active	590	Non-Toxic	218.8	Dose-Dependent Effect	Active	Activity (MDA-MB-231 [19]): Active; Activity (MDA-MB-231 [20]): Active; IC50 (MDA-MB-231 [21]): 18 nM; Activity (MDA-MB-231 [22]): inactive; Activity (MDA-MB-231 [23]): Active; Activity (MDA-MB-231 [24]): Dose-Dependent Effect; IC50 (BT-549): 34 nM; Activity (MDA-MB-231 [25]): Active; IC50 (MDA-MB-468): 12 nM; Activity (U-87 MG): inactive; Activity (4T1): Active; Activity (MCF-10A): Non-Toxic; IC50 (MDA-MB-231 [26]): 1750 nM
COc1cc(N(C(=O)CCl)c2ccc3c(c2)OCCO3)cc(OC)c1F	31	3.63 (≈ 9.51 µM)	Non-Toxic	98.8	Toxic	Dose-Dependent Effect	12	120	inactive	50.4	Active	Active	Dose-Dependent Effect	inactive	Active	630	Non-Toxic	249.5	Dose-Dependent Effect	Active	Activity (MDA-MB-231 [19]): Active; Activity (MDA-MB-231 [20]): Active; IC50 (MDA-MB-231 [21]): 18 nM; Activity (MDA-MB-231 [22]): inactive; Activity (MDA-MB-231 [23]): Active; Activity (MDA-MB-231 [24]): Dose-Dependent Effect; IC50 (BT-549): 75 nM; Activity (MDA-MB-231 [25]): Active; IC50 (MDA-MB-468): 10 nM; Activity (U-87 MG): inactive; Activity (4T1): Active; Activity (MCF-10A): Non-Toxic; IC50 (MDA-MB-231 [26]): 2570 nM
